Measurements from ChEMBL document CHEMBL3244251, “Mitomycin antibiotics. Synthesis of 7-methoxy-1-(N-pyrrolidino)mitosene and its methiodide” (J Med Chem, 1978).
Calls of active or inactive are those of the source. The rule behind the calls is not given here.

Tests used:
[1] = system: Enterobacteria phage lambda; assay: Induction of lambda phage production in streptomycin-dependent lysogenic Escherichia coli W1709 (lambda) assessed as ratio of plaques in treated culture to control at 12.5 ug/ml; assay type: functional
[2] = system: Enterobacteria phage lambda; assay: Induction of lambda phage production in streptomycin-dependent lysogenic Escherichia coli W1709 (lambda) assessed as ratio of plaques in treated culture to control at 0.8 ug/ml; assay type: functional
[3] = system: Enterobacteria phage lambda; assay: Induction of lambda phage production in streptomycin-dependent lysogenic Escherichia coli W1709 (lambda) assessed as ratio of plaques in treated culture to control at 0.2 ug/ml; assay type: functional
[4] = system: Bacillus subtilis; assay: Antibacterial activity against Bacillus subtilis assessed as growth inhibition at 5.5 ug/ml in 100 mm disk at pH 8.0 by single-disk method; assay type: functional; conditions: read-out: IZ
[5] = system: Bacillus subtilis; assay: Antibacterial activity against Bacillus subtilis assessed as growth inhibition at 16.6 ug/ml in 100 mm disk at pH 8.0 by single-disk method; assay type: functional; conditions: read-out: IZ
[6] = system: Bacillus subtilis; assay: Antibacterial activity against Bacillus subtilis assessed as growth inhibition at 50 ug/ml in 100 mm disk at pH 8.0 by single-disk method; assay type: functional; conditions: read-out: IZ
[7] = system: Escherichia coli; assay: Toxicity in streptomycin-dependent lysogenic Escherichia coli W1709 (lambda) at 3.1 ug/ml; assay type: organism-based; conditions: in vivo
[8] = system: Enterobacteria phage lambda; assay: Induction of lambda phage production in streptomycin-dependent lysogenic Escherichia coli W1709 (lambda) assessed as ratio of plaques in treated culture to control at 3.1 ug/ml; assay type: functional
[9] = system: Escherichia coli; assay: Toxicity in streptomycin-dependent lysogenic Escherichia coli W1709 (lambda) at 12.5 ug/ml; assay type: organism-based; conditions: in vivo
[10] = system: Escherichia coli; assay: Toxicity in streptomycin-dependent lysogenic Escherichia coli W1709 (lambda) at 0.8 ug/ml; assay type: organism-based; conditions: in vivo
[11] = system: P388; assay: In vivo antitumor activity against mouse P388 cells at 6.4 mg/kg relative to control; assay type: functional
[12] = system: Enterobacteria phage lambda; assay: Induction of lambda phage production in streptomycin-dependent lysogenic Escherichia coli W1709 (lambda) assessed as ratio of plaques in treated culture to control at 0.5 ug/ml; assay type: functional
[13] = system: Bacillus subtilis; assay: Antibacterial activity against Bacillus subtilis assessed as growth inhibition at 0.2 ug/ml in 100 mm disk at pH 8.0 by single-disk method; assay type: functional; conditions: read-out: IZ
[14] = system: Bacillus subtilis; assay: Antibacterial activity against Bacillus subtilis assessed as growth inhibition at 0.8 ug/ml in 100 mm disk at pH 8.0 by single-disk method; assay type: functional; conditions: read-out: IZ
[15] = system: Enterobacteria phage lambda; assay: Induction of lambda phage production in streptomycin-dependent lysogenic Escherichia coli W1709 (lambda) assessed as ratio of plaques in treated culture to control at 0.0125 ug/ml; assay type: functional
[16] = system: Escherichia coli; assay: Toxicity in streptomycin-dependent lysogenic Escherichia coli W1709 (lambda) at 0.5 ug/ml; assay type: organism-based; conditions: in vivo
[17] = system: Bacillus subtilis; assay: Antibacterial activity against Bacillus subtilis assessed as growth inhibition at 12.5 ug/ml in 100 mm disk at pH 8.0 by single-disk method; assay type: functional; conditions: read-out: IZ
[18] = system: P388; assay: In vivo antitumor activity against mouse P388 cells relative to control; assay type: functional, organism-based
[19] = system: Bacillus subtilis; assay: Antibacterial activity against Bacillus subtilis assessed as growth inhibition at 3.1 ug/ml in 100 mm disk at pH 8.0 by single-disk method; assay type: functional; conditions: read-out: IZ

SMILES | T/C [1] | T/C [2] | T/C [3] | zone of inhibition at 5.5 µg/mL [4] | zone of inhibition at 16.6 µg/mL [5] | zone of inhibition at 50 µg/mL [6] | Activity [7] | T/C [8] | Activity [9] | Activity [10] | T/C [11] | T/C [12] | zone of inhibition at 0.2 µg/mL [13] | zone of inhibition at 0.8 µg/mL [14] | T/C [15] | Activity [16] | zone of inhibition at 12.5 µg/mL [17] | Activity [18] | zone of inhibition at 3.1 µg/mL [19]
COC1=C(C)C(=O)c2c(c(COC(N)=O)c3n2CCC3OC(C)=O)C1=O (configuration not stated) | > 49 | > 49 | 27.9 | 31.2 mm | 35 mm | 35 mm | Toxic | > 74 | Toxic | Toxic | 162% | – | – | – | – | – | – | – | –
CO[C@@]12[C@H](COC(N)=O)C3=C(C(=O)C(C)=C(N)C3=O)N1C[C@@H]1N[C@@H]12 [MITOMYCIN] | – | – | – | – | – | – | – | – | – | – | 283% | 17.5 | 22.8 mm | 32 mm | 8.6 | Toxic | – | – | –
COC1=C(C)C(=O)c2c(c(COC(N)=O)c3n2CCC3N2CCCC2)C1=O (configuration not stated) | 2.1 | 1.6 | 1.3 | – | – | 33 mm | – | 3.6 | Toxic | – | – | 1.2 | 11.3 mm | 15.3 mm | – | – | 27.8 mm | inactive | 22 mm
COC1=C(C)C(=O)c2c(c(COC(N)=O)c3n2CCC3[N+]2(C)CCCC2)C1=O (configuration not stated) | 2.2 | 1.1 | 1.1 | – | – | 14.2 mm | – | 1.2 | – | – | – | 1.1 | – | – | – | – | 10 mm | inactive | –
